Reference: paper PMC10493395, “Optimization of a small molecule inhibitor of secondary nucleation in α-synuclein aggregation” (Frontiers in Molecular Biosciences, 2023)

Target: T1, α-synuclein (Homo sapiens, UniProt P37840)
T1 construct: gene SNCA; preformed fibrils of recombinant wild-type α-synuclein
Assay: fibril ultracentrifugation depletion with LC-MS of unbound compound in the supernatant, dose-response fit (second estimate […] by varying fibril concentration)
Format: binding

Kd: 6 ± 1 µM
Compound: O=C1NN(c2ccccc2)C(=O)C1=Cc1coc2ccc(Cl)cc2c1=O [69.2, compound 69.2]
